In ChEMBL document CHEMBL1909046, “DrugMatrix in vitro pharmacology data”:

Assays:
[1] = molecular target: C-C chemokine receptor type 5 (Homo sapiens, UniProt P51681); type: cell membranes, HEK293, Membrane; settings: hek293; further: in other assays of this panel Not Active means under 50% inhibition at 10 µM
[2] = DRUGMATRIX: Interleukin IL-1 radioligand binding (ligand: [125I] interleukin 1beta); type: cell membranes, Membrane; settings: nih3t3; Not Active = under 50% inhibition at 10 µM
[3] = DRUGMATRIX: Calcium Channel Type L, Dihydropyridine radioligand binding (ligand: [3H] Nitrendipine); type: cell membranes, Rattus norvegicus, Wistar, Cerebral cortex, Membrane; settings: Not Active = under 50% inhibition at 10 µM
[4] = molecular target: T1, C-X-C chemokine receptor type 2 (Homo sapiens, UniProt P25025); type: cell membranes, CHO-K1, Membrane; settings: cho-k1; further: in other assays of this panel Not Active means under 50% inhibition at 10 µM
T1 sequence (P25025 whole entry): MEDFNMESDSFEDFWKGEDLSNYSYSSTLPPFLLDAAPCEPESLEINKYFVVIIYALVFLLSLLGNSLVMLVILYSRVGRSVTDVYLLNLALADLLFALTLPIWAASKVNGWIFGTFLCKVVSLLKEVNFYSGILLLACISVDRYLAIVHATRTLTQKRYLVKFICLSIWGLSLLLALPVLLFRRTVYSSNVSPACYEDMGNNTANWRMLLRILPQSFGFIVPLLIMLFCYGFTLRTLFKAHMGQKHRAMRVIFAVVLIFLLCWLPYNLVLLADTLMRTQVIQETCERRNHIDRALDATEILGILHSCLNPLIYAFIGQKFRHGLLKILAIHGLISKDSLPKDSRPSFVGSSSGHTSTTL

[5] = molecular target: cGMP-specific 3',5'-cyclic phosphodiesterase (Homo sapiens, UniProt O76074); assay: DRUGMATRIX: Phosphodiesterase PDE5 enzyme inhibition (substrate: [3H]cGMP + cGMP); type: tissue-based, Platelet; settings: platelet; Not Active = under 50% inhibition at 10 µM

C-C chemokine receptor type 5, sequence (P51681 whole entry): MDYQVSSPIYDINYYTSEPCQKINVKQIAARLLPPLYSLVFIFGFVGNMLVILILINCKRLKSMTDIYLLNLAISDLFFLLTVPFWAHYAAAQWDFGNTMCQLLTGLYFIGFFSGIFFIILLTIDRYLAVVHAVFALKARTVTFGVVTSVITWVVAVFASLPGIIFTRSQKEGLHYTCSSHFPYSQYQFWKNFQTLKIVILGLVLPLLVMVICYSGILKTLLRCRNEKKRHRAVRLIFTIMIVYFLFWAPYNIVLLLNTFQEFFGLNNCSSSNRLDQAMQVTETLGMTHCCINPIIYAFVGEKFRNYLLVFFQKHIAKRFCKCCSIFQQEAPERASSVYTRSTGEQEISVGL

SMILES | IC50 [1] | IC50 [2] | Ki [2] | IC50 [3] | Ki [3] | IC50 [4] | IC50 [5] | IC50 ([3]; read-out: IC50) | Ki ([3]; read-out: Ki)
CC#C[C@]1(O)CC[C@H]2[C@@H]3CCC4=CC(=O)CCC4=C3[C@@H](c3ccc(N(C)C)cc3)C[C@@]21C [MIFEPRISTONE] | Not Active | Not Active | Not Active | Not Active | Not Active | Not Active | Not Active | – | –
CS(=O)(=O)c1ccc(C2=C(c3ccccc3)C(=O)OC2)cc1 [ROFECOXIB] | Not Active | Not Active | Not Active | Not Active | Not Active | Not Active | Not Active | – | –
COC(=O)Nc1nc2ccc(C(=O)c3ccccc3)cc2[nH]1 [MEBENDAZOLE] | Not Active | Not Active | Not Active | Not Active | Not Active | Not Active | Not Active | – | –
CC(O)C(=O)O (configuration not stated) [LACTIC ACID] | Not Active | Not Active | Not Active | Not Active | Not Active | Not Active | Not Active | – | –
CC(N)C12CC3CC(CC(C3)C1)C2 (configuration not stated) [RIMANTADINE] | Not Active | Not Active | Not Active | Not Active | Not Active | Not Active | Not Active | – | –
CN1C[C@H](CNC(=O)OCc2ccccc2)C[C@@H]2c3cccc4c3c(cn4C)C[C@H]21 [METERGOLINE] | Not Active | Not Active | Not Active | Not Active | Not Active | Not Active | Not Active | – | –
CO[C@@H]1[C@@H](OC)[C@H](C)[C@@](O)(CC(=O)O)O[C@H]1[C@H](C)[C@H]1O[C@@]2(CC[C@@](C)([C@H]3CC[C@@](C)([C@@H]4O[C@@H]([C@H]5O[C@](C)(O)[C@H](C)C[C@@H]5C)C[C@@H]4O[C@@H]4C[C@H](OC)[C@@H](OC)[C@H](C)O4)O3)O2)C[C@H](O)[C@H]1C.N [MADURAMICIN] | Not Active | Not Active | Not Active | Not Active | Not Active | Not Active | Not Active | – | –
CCOC(=O)C1=C(C)NC(C)=C(C(=O)OCC)C1c1ccccc1/C=C/C(=O)OC(C)(C)C [LACIDIPINE] | Not Active | Not Active | Not Active | – | – | Not Active | Not Active | 0.4 nM | 0.257 nM
CC(C)(C)NC[C@H](O)COc1cccc2c1CCCC2=O [LEVOBUNOLOL] | Not Active | Not Active | Not Active | Not Active | Not Active | Not Active | Not Active | – | –
Cc1[nH]c(=O)c(C#N)cc1-c1ccncc1 [MILRINONE] | Not Active | Not Active | Not Active | Not Active | Not Active | Not Active | Not Active | – | –
C1CCN2C[C@@H]3C[C@@H](CN4CCCC[C@@H]34)[C@H]2C1 [SPARTEINE] | Not Active | Not Active | Not Active | Not Active | Not Active | Not Active | Not Active | – | –
Cc1cnc(NC(=O)C2=C(O)c3ccccc3S(=O)(=O)N2C)s1 [MELOXICAM] | Not Active | Not Active | Not Active | Not Active | Not Active | Not Active | Not Active | – | –
CO[C@@]12[C@H](COC(N)=O)C3=C(C(=O)C(C)=C(N)C3=O)N1C[C@@H]1N[C@@H]12 [MITOMYCIN] | Not Active | Not Active | Not Active | Not Active | Not Active | Not Active | Not Active | – | –
CC(Cl)(Cl)Cl [TRICHLOROETHANE] | Not Active | Not Active | Not Active | Not Active | Not Active | Not Active | Not Active | – | –
Cc1cc2c(s1)Nc1ccccc1N=C2N1CCN(C)CC1 [OLANZAPINE] | Not Active | – | – | – | – | Not Active | Not Active | – | –
CNCCCC12CCC(c3ccccc31)c1ccccc12 [MAPROTILINE] | Not Active | – | – | – | – | Not Active | Not Active | – | –
CN(C)CCC=C1c2ccccc2COc2ccccc21 [DOXEPIN] | Not Active | – | – | – | – | Not Active | Not Active | – | –
